Data: publication PMC6820371, “Terbium-161 for PSMA-targeted radionuclide therapy of prostate cancer” (European Journal of Nuclear Medicine and Molecular Imaging, 2019)

Tested on: PC-3 PIP tumor cells
Test: Cell viability assay (MTT assay)
Assay type: cell-based, human
Experimental: The detailed methods of these studies, including dosimetric calculations, are described in the Supplementary material. The results were analyzed for statistical significance by a two-way ANOVA with Sidak’s multiple comparison post-test using Graph Pad Prism (version 7).
Methods: Tumor cell viability was assessed using a 3-(4,5-dimethylthiazol-2-yl)-2,5-diphenyltetrazolium bromide (MTT) assay as described by Mosmann. PC-3 PIP tumor cells (2500 cells in 200 μL RPMI medium with supplements) were seeded in 96-well plates and incubated overnight (37°C; 5% CO2) to allow adhesion of the tumor cells. The supernatants were removed and the tumor cells were washed once with 200 μL PBS. Afterwards, the tumor cells were incubated in 200 μL RPMI medium (without supplements) containing ^161Tb-PSMA-617 or ^177Lu-PSMA-617 (0.01‒20 MBq/mL), respectively, or just RPMI medium without addition of radioligands. PSMA-negative PC-3 flu tumor cells were also treated with these radioligands under the same experimental conditions using the same concentration range. Additional cell viability assays were performed with PC-3 PIP tumor cells incubated with RPMI medium (without supplements) containing ^161Tb-diethylenetriaminepentaacetic acid (DPTA) or ^177Lu-DTPA (0.01 – 20 MBq/mL). After 4 h incubation (37 °C; 5% CO2), the tumor cells were washed once with 200 μL PBS, followed by the addition of 200 μL of RPMI medium (with supplements) to each well. The tumor cells were left to grow for 6 days under standard cell culture conditions (37 °C, 5% CO2). At Day 6 after treatment, MTT reagent (5 mg/mL in PBS, 30 μL per well) was added to each well to allow the formation of dark-violet formazan crystals within 4 h incubation. The crystals were dissolved by the addition of dimethyl sulfoxide to determine the absorbance at 560 nm using a microplate reader (Victor X3, Perkin Elmer). Cell viability was quantified by expressing the absorbance of the test samples as percentage of the absorbance of control (untreated) cell samples which was set to 100%. Statistical analysis was performed using a two-way ANOVA with Sidak’s multiple comparison post-test in Graph Pad Prism (version 7).

## O=C([O-])CN1CCN(CC(=O)[O-])CCN(CC(=O)NCC2CCC(C(=O)NC(Cc3ccc4ccccc4c3)C(=O)NCCCCC(NC(=O)NC(CCC(=O)O)C(=O)O)C(=O)O)CC2)CCN(CC(=O)[O-])CC1.[161Tb+3] (centres unmarked) [^161Tb-PSMA-617]
0.1–10 MBq/mL, p < 0.05
  Reduction of tumor-cell viability compared to ^177Lu-PSMA-617: significantly more effective
Viability and survival of PC-3 PIP tumor cells
  Effectiveness in vitro relative to ^177Lu-PSMA-617: up to 3 fold
